Assay results published in US20190010167A1, “INHIBITORS OF THE MENIN-MLL INTERACTION” (Vitae Pharmaceuticals, Inc., priority 2015, published 2019).

These molecules were tested against T1, wild-type menin / MLL-AF9 fusion protein (Homo sapiens, UniProt O00255) (assay: AlphaLISA menin/MLL binding assay, wild-type menin (Assay 1)). Conditions: biotinylated wild-type menin 5 nM, MLL-AF9-FLAG lysate.
T1 construct: made in house; host or cells: E. coli (menin); HEK293 cleared lysate (MLL-AF9-FLAG)
T1 sequence (O00255 1-610): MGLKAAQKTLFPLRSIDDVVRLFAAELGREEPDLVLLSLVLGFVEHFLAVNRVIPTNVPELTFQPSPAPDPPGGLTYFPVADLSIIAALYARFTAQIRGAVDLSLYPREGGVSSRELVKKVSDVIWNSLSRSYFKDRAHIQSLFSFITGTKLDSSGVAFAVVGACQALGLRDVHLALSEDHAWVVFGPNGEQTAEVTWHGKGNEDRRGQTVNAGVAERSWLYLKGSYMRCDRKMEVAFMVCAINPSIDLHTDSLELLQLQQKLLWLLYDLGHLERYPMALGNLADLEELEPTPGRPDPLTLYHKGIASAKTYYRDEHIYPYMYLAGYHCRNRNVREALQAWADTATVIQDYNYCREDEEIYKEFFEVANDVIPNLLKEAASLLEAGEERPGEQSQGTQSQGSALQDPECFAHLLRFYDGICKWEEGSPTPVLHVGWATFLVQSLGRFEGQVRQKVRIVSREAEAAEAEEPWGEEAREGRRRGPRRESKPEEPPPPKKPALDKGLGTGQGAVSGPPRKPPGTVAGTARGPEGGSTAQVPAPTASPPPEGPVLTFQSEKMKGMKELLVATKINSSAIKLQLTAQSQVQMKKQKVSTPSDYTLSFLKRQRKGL
Experimental: Potencies of inhibitor compounds against menin/MLL binding were assessed by AlphaLISA assay using biotinylated (1) wild-type menin or (2) mutated menin (described in Nature (2012) Vol. 482, pp. 542-548) and MLL-AF9 fusion protein bearing a FLAG epitope at its C-terminus. Menin proteins were expressed in E. coli and covalently modified with biotin using EZ-Link™ Sulfo-NHS-Biotin (ThermoFisher Cat. No. 21217) according to manufacturer's protocol. MLL1-1,396 fused to AF91-92 and the C-terminal FLAG peptide was expressed in HEK293 cells and used as a lysate cleared at 21,000×g for 10 min.
Compounds (2 μL of solutions in DMSO) were dispensed in white 96-well half-area plates (Corning Cat. No. 3693) and incubated for 30 min at RT with 5 nM biotinylated menin and appropriate amount of MLL-AF9-FLAG lysate in 40 μL of 50 mM Tris-HCl buffer pH 7.4 containing 5% (v/v) DMSO, 50 mM NaCl, 0.01% (w/v) bovine serum albumin (BSA) and 1 mM DTT. To this incubation mixture, 40 μl of AlphaLISA anti-FLAG acceptor (PerkinElmer Cat. No. AL112C) and streptavidin donor (PerkinElmer Cat. No. 6760002) beads (10 μg/mL each) was added and incubation continued at RT for 60 min. Alpha (amplified luminescent proximity homogeneous assay) signal was measured on an Envision multi-label plate reader at the end of the incubation. All steps were conducted under dim fluorescent light.
These percent inhibition values were regressed against compound concentrations in the assay using four parameter logit non-linear curve fitting (XLFit, IDBS). The IC50 values were derived from the curve fitting as inflection points on the dose-response curves and are set out in Table 1 below.

Row | Compound | IC50
1 | FC(F)(F)Cc1cc2c(N3CCC4(CCN(CC5CCOC5)C4)C3)ncnc2s1 (stereo not drawn) [Example 31, 4-(7-((Tetrahydrofuran-3-yl)methyl)-2,7-diazaspiro[4.4]nonan-2-yl)-6-(2,2,2-trifluoroethyl)thieno[2,3-d]pyrimidine] | 100 to 1000 nM
2 | CC(C)(N)CC(=O)N1CC2(C1)CN(c1ncnc3sc(CC(F)(F)F)cc13)C2 [Example 77, 3-amino-3-methyl-1-(6-(6-(2,2,2-trifluoroethyl)thieno[2,3-d]pyrimidin-4-yl)-2,6-diazaspiro[3.3]heptan-2-yl)butan-1-one] | 100 to 1000 nM
3 | FC(F)(F)Cc1cc2c(N3CCC4(CC3)CN(CC3CCCO3)C4)ncnc2s1 (stereo not drawn) [Example 4, 4-(2-((tetrahydrofuran-2-yl)methyl)-2,7-diazaspiro[3.5]nonan-7-yl)-6-(2,2,2-trifluoroethyl)thieno[2,3-d]pyrimidine] | ≥ 1000 nM
4 | O=C1N(Cc2ccccc2)CCC12CCN(c1ncnc3sc(CC(F)(F)F)cc13)C2 (stereo not drawn) [Example 59, 2-benzyl-7-(6-(2,2,2-trifluoroethyl)thieno[2,3-d]pyrimidin-4-yl)-2,7-diazaspiro[4.4]nonan-1-one] | ≥ 1000 nM
5 | CCC(C)CN1CCC2(CC1)CCN(c1ncnc3sc(CC(F)(F)F)cc13)C2 (stereo not drawn) [Example 114, 4-(8-(2-methylbutyl)-2,8-diazaspiro[4.5]decan-2-yl)-6-(2,2,2-trifluoroethyl)thieno[2,3-d]pyrimidine] | 100 to 1000 nM
6 | CCC(C)CN1CCC2(C1)CN(c1ncnc3sc(CC(F)(F)F)cc13)C2 (stereo not drawn) [Example 94, 4-(6-(2-methylbutyl)-2,6-diazaspiro[3.4]octan-2-yl)-6-(2,2,2-trifluoroethyl)thieno[2,3-d]pyrimidine] | 100 to 1000 nM
7 | Cc1c(CN2CC[C@@]3(CCN(c4ccnc5ccc(CC(F)(F)F)cc45)C3)C2)ccc2[nH]c(C#N)cc12 (single isomer, unassigned) [Example 86a, 4-methyl-5-((7-(6-(2,2,2-trifluoroethyl)quinolin-4-yl)-2,7-diazaspiro[4.4]nonan-2-yl)methyl)-1H-indole-2-carbonitrile] | 100 to 1000 nM
8 | CC(=O)N[C@H]1CC[C@H](CN2CCC3(CCN(c4ncnc5sc(CC(F)(F)F)cc45)C3)C2)CC1 (stereo partly drawn) [Example 47, N-((1r,4r)-4-((7-(6-(2,2,2-trifluoroethyl)thieno[2,3-d]pyrimidin-4-yl)-2,7-diazaspiro[4.4]nonan-2-yl)methyl)cyclohexyl)acetamide] | 100 to 1000 nM
9 | FC(F)(F)Cc1cc2c(N3CCC4(CC3)CN(CC3CC(F)(F)C3)C4)ncnc2s1 [Example 14, 4-(2-((3,3-difluorocyclobutyl)methyl)-2,7-diazaspiro[3.5]nonan-7-yl)-6-(2,2,2-trifluoroethyl)thieno[2,3-d]pyrimidine] | 100 to 1000 nM
10 | O=C(C1CCCNC1)N1CCC2(CCN(c3ncnc4sc(CC(F)(F)F)cc34)C2)C1 (stereo not drawn) [Example 55, piperidin-3-yl(7-(6-(2,2,2-trifluoroethyl)thieno[2,3-d]pyrimidin-4-yl)-2,7-diazaspiro[4.4]nonan-2-yl)methanone] | 100 to 1000 nM
11 | COC(=O)Nc1cccc(CN2CCC3(CCN(c4ncnc5sc(CC(F)(F)F)cc45)C3)C2)c1 (stereo not drawn) [Example 53, methyl (3-((7-(6-(2,2,2-trifluoroethyl)thieno[2,3-d]pyrimidin-4-yl)-2,7-diazaspiro[4.4]nonan-2-yl)methyl)phenyl)carbamate] | < 100 nM
12 | CCS(=O)(=O)N[C@H]1CC[C@H](CN2CC3(C2)CN(c2ncnc4sc(CC(F)(F)F)cc24)C3)CC1 [Example 71, N-((1r,4r)-4-((6-(6-(2,2,2-trifluoroethyl)thieno[2,3-d]pyrimidin-4-yl)-2,6-diazaspiro[3.3]heptan-2-yl)methyl)cyclohexyl)ethanesulfonamide] | 100 to 1000 nM
13 | CC(C)N1CC2(CCN(c3ncnc4sc(CC(F)(F)F)nc34)CC2)C1 [Example 80, 7-(2-isopropyl-2,7-diazaspiro[3.5]nonan-7-yl)-2-(2,2,2-trifluoroethyl)thiazolo[5,4-d]pyrimidine] | ≥ 1000 nM

Other lines, results leading:

Row | IC50 | Compound
14 | 100 to 1000 nM | FC(F)(F)Cc1cc2c(N3CCC4(CC3)CN(CC3CCC(F)(F)CC3)C4)ncnc2s1 [Example 12, 4-(2((4,4-difluorocyclohexyl)methyl)-2,7-diazaspiro[3.5]nonan-7-yl)-6-(2,2,2-trifluoroethyl)thieno[2,3-d]pyrimidine]
15 | ≥ 1000 nM | Cc1c(CN2CCC3(CC2)CCN(c2ncnc4sc(CC(F)(F)F)cc24)C3)ccc2[nH]c(C#N)cc12 [Example 117, 4-methyl-5-((2-(6-(2,2,2-trifluoroethyl)thieno[2,3-d]pyrimidin-4-yl)-2,8-diazaspiro[4.5]decan-8-yl)methyl)-1H-indole-2-carbonitrile]
16 | 100 to 1000 nM | CC(=O)Nc1ccc(CN2CCC3(CC2)CN(c2ncnc4sc(CC(F)(F)F)cc24)C3)cc1 [Example 103, N-(4-((2-(6-(2,2,2-trifluoroethyl)thieno[2,3-d]pyrimidin-4-yl)-2,7-diazaspiro[3.5]nonan-7-yl)methyl)phenyl)acetamide]
17 | ≥ 1000 nM | FC(F)(F)Cc1cc2c(N3CC4(CCN(Cc5ccccc5)C4)C3)ncnc2s1 [Example 95, 4-(6-benzyl-2,6-diazaspiro[3.4]octan-2-yl)-6-(2,2,2-trifluoroethyl)thieno[2,3-d]pyrimidine]
18 | ≥ 1000 nM | FC(F)(F)Cc1cc2c(N3CCC4(CCN(Cc5ccccc5)CC4)C3)ncnc2s1 [Example 116, 4-(8-benzyl-2,8-diazaspiro[4.5]decan-2-yl)-6-(2,2,2-trifluoroethyl)thieno[2,3-d]pyrimidine]
19 | 100 to 1000 nM | FC(F)(F)Cc1cc2c(N3CCC4(CCN(CC5CCOCC5)CC4)C3)ncnc2s1 [Example 115, 4-(8-((tetrahydro-2H-pyran-4-yl)methyl)-2,8-diazaspiro[4.5]decan-2-yl)-6-(2,2,2-trifluoroethyl)thieno[2,3-d]pyrimidine]
20 | ≥ 1000 nM | FC(F)(F)Cc1cc2c(N3CC4(CN(CC5CC(F)(F)C5)C4)C3)ncnc2s1 [Example 74, 4-(6-((3,3-difluorocyclobutyl)methyl)-2,6-diazaspiro[3.3]heptan-2-yl)-6-(2,2,2-trifluoroethyl)thieno[2,3-d]pyrimidine]
21 | ≥ 1000 nM | CC(C)(F)CN1CC2(CCN(c3ncnc4sc(CC(F)(F)F)cc34)CC2)C1 [Example 16, 4-(2-(2-fluoro-2-methylpropyl)-2,7-diazaspiro[3.5]nonan-7-yl)-6-(2,2,2-trifluoroethyl)thieno[2,3-d]pyrimidine]
22 | 100 to 1000 nM | CS(=O)(=O)c1ccc(CC(=O)N2CC3(C2)CN(c2ncnc4sc(CC(F)(F)F)cc24)C3)cc1 [Example 62, 2-(4-(methylsulfonyl)phenyl)-1-(6-(6-(2,2,2-trifluoroethyl)thieno[2,3-d]pyrimidin-4-yl)-2,6-diazaspiro[3.3]heptan-2-yl)ethan-1-one]
23 | 100 to 1000 nM | FC(F)(F)Cc1cc2c(N3CCC4(CCN(C[C@H]5CC[C@H](C(F)(F)F)CC5)C4)C3)ncnc2s1 (stereo partly drawn) [Example 37, 6-(2,2,2-Trifluoroethyl)-4-(7-(((1r,4r)-4-(trifluoromethyl)cyclohexyl)methyl)-2,7-diazaspiro[4.4]nonan-2-yl)thieno[2,3-d]pyrimidine]
24 | 100 to 1000 nM | CC(C)CN1CCC2(CC1)CCN(c1ncnc3sc(CC(F)(F)F)cc13)C2 [Example 113, 4-(8-isobutyl-2,8-diazaspiro[4.5]decan-2-yl)-6-(2,2,2-trifluoroethyl)thieno[2,3-d]pyrimidine]
